30 molecules from patent publication US20240116945A1, “EXATECAN-DERIVED TOPOISOMERASE-1 INHIBITORS PHARMACEUTICAL COMPOSITIONS, AND USES THEREOF” (Merck Sharp & Dohme LLC, priority 2022, published 2024) can be followed below.

This assay concerns Jeko-1 cells. The assay is described as follows: CellTiter-Glo 2.0 Cytotoxicity Assay. The assay is classed as cell-based. The following applies: compounds added Day 1, CellTiter-Glo 2.0 luminescence read on Day 4 or 5. The method, then: Reaction progress and synthetic intermediate analysis were assessed by LCMS (UV detection with ESI, APCI, or other mass detection) when applicable using a MeCN/water gradient with either TFA, formic acid, or NH4HCO3 modifier. Silica gel and reverse-phase flash column chromatography were conducted with commercially available pre-packed columns. Reverse-phase preparative HPLC purification was performed on preparative HPLC instruments with UV and MS detection using a MeCN/water gradient with either TFA, formic acid, or NH4OH modifier. ^1H NMR spectra were collected at room temperature, and chemical shifts are reported in ppm relative to the residual proteo-solvent signals, and multiplicities, coupling constants (where applicable), and signal integrations are listed parenthetically. Unless otherwise noted, all EC50 data presented in tables refers to the CellTiter-Glo® 2.0 Cytotoxicity Assay that is described in the Biological Assay section.
CellTiter-Glo® 2.0 Cytotoxicity Assay
Step 1: Seed 384-Well Plates for Assay (45 μL Per Well) on Day 0
Jeko-1 cells were quickly thawed in a cryo-vial by incubating them in a 37° C. water bath for <1 min until there is just a small bit of ice left in the vial. The vial was promptly removed and wiped down with 70% ethanol. The cells were transferred from the vial to a sterile centrifuge tube containing 8 mL of pre-warmed cell culture medium. The vial was flushed with an additional 1 mL of medium to ensure complete transfer of cells to the centrifuge tube. The cells were then centrifuged at 150×g for 5 minutes. The supernatant was aspirated, and the cell pellet was resuspended in 10-20 mL cell culture medium. Cells were counted using Vi-cell and prepared 6.6×10^4 cells/ml, 3000 cells/45 μL per well. Then added 45 μL/well of cells into Corning® 384-well Low Flange White Flat Bottom Polystyrene TC-treated Microplates (Corning, Cat #3570) using Standard Cassette Combi (if needed, dispense 1 dummy plate at 20 μL to help normalize Combi, using medium speed). The plates were spun down at 150×g for 30 seconds.
Step 2: Add Compounds on Day 1
The compound plates and reference compound stock were taken out and allowed to thaw at RT. The tubes were centrifuged at 2000×g for 30 seconds. The 10× Intermediate assay plates (Greiner plate, Cat #781280) were prepared using an Echo liquid handler. Proper buffer (HBSS (Gibco, Cat #14025-092)+10 mM HEPES (Gibco, Cat #15630-080)+0.1% BSA (Sigma, Cat #A9576)) were used to make serial dilutions. Media (no cells) was used for Max_E. Compound (5 μL of 10×) was transferred from intermediate plate to assay plate using a Bravo liquid handler using a very slow speed so the cell monolayer wasn't disturbed. The plates were spun down at 150×g for 30 seconds.
Step 3: CellTiter-Glo 2.0 Assay (Promega, Cat #G9242) on Day 4 or 5 (CellTiter-Glo Kit Stored at −70° C.)
The CellTiter-Glo® 2.0 Reagent was thawed at 4° C. overnight, taking care not to expose the reagent to temperatures above 25° C.). The kit was equilibrated to RT for approximately 30 minutes. CellTiter-Glo® 2.0 Reagent (20 μl) was added to 50 μl of medium containing cells using Standard Cassette Combi. The contents were mixed for 2-3 minutes on an orbital shaker to induce cell lysis. The plates were spun down at 150×g for 30 seconds. The plates were allowed to incubate at RT for 5 minutes to stabilize the luminescent signal.
Illustrative compounds of the present disclosure were tested in the above assay in Example 15, and results are provided in the Table 9 below: […]
Background: Cellular ATP, detected with luciferase, serves as a proxy for viable cell number.

Where [1] appears, read: Homo sapiens, JeKo-1, read-out: Jeko-1 EC50 (nM), Jeko-1 cells, 3000 cells/well.
[2] abbreviates: read-out: Jeko-1 EC50, Jeko-1 cells, 3000 cells/well.
Where [3] appears, read: Homo sapiens, Jeko-1 cells, 3000 cells/well, read-out: Jeko-1 EC50.

Structures can show the parent of a compound that is named as a salt. Where two headings read alike, the source gives them in different places.

`CC[C@@]1(O)C(=O)OCc2c1cc1n(c2=O)Cc2c-1nc1cc(F)c(C)c3c1c2[C@@H](NC(=O)[C@H](C)CO)CC3` [Compound 33]: the EC50 under setting [1] is 3.8 nM.
Still for that read-out and setting: the same measure for `CC[C@@]1(O)C(=O)OCc2c1cc1n(c2=O)Cc2c-1nc1cc(F)c(C)c3c1c2[C@@H](NC(=O)C(C)(N)COC)CC3` (stereo partly drawn) [Compound 48]: 8.7 nM; for `CC[C@@]1(O)C(=O)OCc2c1cc1n(c2=O)Cc2c-1nc1cc(F)c(C)c3c1c2[C@@H](NC(=O)C(F)(F)CO)CC3` [Compound 9]: 4 nM; for `CC[C@@]1(O)C(=O)OCc2c1cc1n(c2=O)Cc2c-1nc1cc(F)c(C)c3c1c2[C@@H](NC(=O)C(C)(F)CO)CC3` (single isomer, unassigned) [Compound 36]: 2.4 nM.
Turning to `CC[C@@]1(O)C(=O)OCc2c1cc1n(c2=O)Cc2c-1nc1cc(F)c(C)c3c1c2[C@@H](NC(=O)C(N)(Cc1ccccc1)C(F)(F)F)CC3` (single isomer, unassigned) [Compound 18], under setting [2], the EC50 came out at 44 nM.
For the molecule `CC[C@@]1(O)C(=O)OCc2c1cc1n(c2=O)Cc2c-1nc1cc(F)c(C)c3c1c2[C@@H](NC(=O)C(O)C1(CO)CC1)CC3` (stereo partly drawn) [Compound 30, N-((1S,9S)-9-ethyl-5-fluoro-9-hydroxy-4-methyl-10,13-dioxo-2,3,9,10,13,15-hexahydro-1H,12H-benzo[de]pyrano[3′,4′: 6,7]indolizino[1,2-b]quinolin-1-yl)-2-hydroxy-2-(1-(hydroxymethyl)cyclopropyl)acetamide], under setting [1], the EC50 is 2.5 nM.
The same measure, in the same setting: the same measure for `CC[C@@]1(O)C(=O)OCc2c1cc1n(c2=O)Cc2c-1nc1cc(F)c(C)c3c1c2[C@@H](NC(=O)[C@@H](O)CCO)CC3` [Compound 2]: 6.6 nM; for `CC[C@@]1(O)C(=O)OCc2c1cc1n(c2=O)Cc2c-1nc1cc(F)c(C)c3c1c2[C@@H](NC(=O)C(C)(N)C1CC1)CC3` (stereo partly drawn) [Compound 20]: 5.2 nM.
For `CC[C@@]1(O)C(=O)OCc2c1cc1n(c2=O)Cc2c-1nc1cc(F)c(C)c3c1c2[C@@H](NC(=O)C(C)(C)CCO)CC3` [Compound 38, N-((1S,9S)-9-ethyl-5-fluoro-9-hydroxy-4-methyl-10,13-dioxo-2,3,9,10,13,15-hexahydro-1H,12H-benzo[de]pyrano[3′,4′: 6,7]indolizino[1,2-b]quinolin-1-yl)-4-hydroxy-2,2-dimethylbutanamide], the EC50 under setting [1] is 4.6 nM.
Regarding `CC[C@@]1(O)C(=O)OCc2c1cc1n(c2=O)Cc2c-1nc1cc(F)c(C)c3c1c2[C@@H](NC(=O)C(N)C(F)(F)F)CC3` (single isomer, unassigned) [Compound 15], the EC50 under setting [2] was 2.9 nM.
In the case of `CC[C@@]1(O)C(=O)OCc2c1cc1n(c2=O)Cc2c-1nc1cc(F)c(C)c3c1c2[C@@H](NC(=O)[C@@H](CCO)OC)CC3` [Compound 31, (R)—N-((1S,9S)-9-ethyl-5-fluoro-9-hydroxy-4-methyl-10,13-dioxo-2,3,9,10,13,15-hexahydro-1H,12H-benzo[de]pyrano[3′,4′: 6,7]indolizino[1,2-b]quinolin-1-yl)-4-hydroxy-2-methoxybutanamide], the EC50 under setting [1] came out at 4.1 nM.
For the molecule `CC[C@@]1(O)C(=O)OCc2c1cc1n(c2=O)Cc2c-1nc1cc(F)c(C)c3c1c2[C@@H](NC(=O)C(F)CO)CC3` (single isomer, unassigned) [Compound 34], the EC50 under setting [2] came out at 4.3 nM.
For `CC[C@@]1(O)C(=O)OCc2c1cc1n(c2=O)Cc2c-1nc1cc(F)c(C)c3c1c2[C@@H](NC(=O)C(F)CO)CC3` (single isomer, unassigned) [Compound 35], the EC50 under setting [2] stood at 1.5 nM.
With `CC[C@@]1(O)C(=O)OCc2c1cc1n(c2=O)Cc2c-1nc1cc(F)c(C)c3c1c2[C@@H](NC(=O)C(C)(N)C(F)F)CC3` (stereo partly drawn) [Compound 13], the EC50 under setting [1] is 4.2 nM.
Regarding `CC[C@@]1(O)C(=O)OCc2c1cc1n(c2=O)Cc2c-1nc1cc(F)c(C)c3c1c2[C@@H](NC(=O)C[C@H](C)O)CC3` [Compound 25], the EC50 under setting [3] was 2.6 nM.
Turning to `CC[C@@]1(O)C(=O)OCc2c1cc1n(c2=O)Cc2c-1nc1cc(F)c(C)c3c1c2[C@@H](NC(=O)[C@H](O)C(C)(C)CO)CC3` [Compound 3], under setting [1], the EC50 amounted to 4.1 nM.
For the molecule `CC[C@@]1(O)C(=O)OCc2c1cc1n(c2=O)Cc2c-1nc1cc(F)c(C)c3c1c2[C@@H](NCC(=O)NC(C)C)CC3` [Compound 55], the EC50 under setting [1] turned out to be 8.8 nM.
Regarding `CC[C@@]1(O)C(=O)OCc2c1cc1n(c2=O)Cc2c-1nc1cc(F)c(C)c3c1c2[C@@H](NC(=O)C(C)(F)CO)CC3` (single isomer, unassigned) [Compound 37], the EC50 under setting [2] was 3.1 nM.
For the molecule `CC[C@@]1(O)C(=O)OCc2c1cc1n(c2=O)Cc2c-1nc1cc(F)c(C)c3c1c2[C@@H](NC(=O)[C@H](O)CN)CC3` [Compound 43], the EC50 under setting [1] was determined as 27 nM.
With `CC[C@@]1(O)C(=O)OCc2c1cc1n(c2=O)Cc2c-1nc1cc(F)c(C)c3c1c2[C@@H](NCc1ccccc1CO)CC3` [Compound 56], the EC50 under setting [1] came to 5.5 nM.
Still for that read-out and setting: the same measure for `CC[C@@]1(O)C(=O)OCc2c1cc1n(c2=O)Cc2c-1nc1cc(F)c(C)c3c1c2[C@@H](NC(=O)C(F)(F)C(C)O)CC3` (single isomer, unassigned) [Compound 7]: 1.7 nM; for `CC[C@@]1(O)C(=O)OCc2c1cc1n(c2=O)Cc2c-1nc1cc(F)c(C)c3c1c2[C@@H](NC(=O)C(N)CC(C)C)CC3` (stereo partly drawn) [Compound 42]: 5.5 nM; for `CC[C@@]1(O)C(=O)OCc2c1cc1n(c2=O)Cc2c-1nc1cc(F)c(C)c3c1c2[C@@H](NCC(C)(F)F)CC3` [Compound 57]: 6.2 nM.
Same read-out and setting: the same measure for `CC[C@@]1(O)C(=O)OCc2c1cc1n(c2=O)Cc2c-1nc1cc(F)c(C)c3c1c2[C@@H](NC(=O)C(C)(N)C(F)(F)F)CC3` (single isomer, unassigned) [Compound 16]: 1.6 nM; for `CC[C@@]1(O)C(=O)OCc2c1cc1n(c2=O)Cc2c-1nc1cc(F)c(C)c3c1c2[C@@H](NC(=O)[C@@H](O)CO)CC3` [Compound 28, (1S,9S)-1-((S)-2,3-dihydroxypropanamido)-9-ethyl-5-fluoro-9-hydroxy-4-methyl-10,13-dioxo-2,3,9,10,13,15-hexahydro-1H,12H-benzo[de]pyrano[3′,4′: 6,7]indolizino[1,2-b]quinolin-7-ium hexafluorophosphate (V)]: 9.7 nM.
On to `CC[C@@]1(O)C(=O)OCc2c1cc1n(c2=O)Cc2c-1nc1cc(F)c(C)c3c1c2[C@@H](NC(=O)[C@@H](N)CO)CC3` [Compound 45, (S)-2-amino-N-((1S,9S)-9-ethyl-5-fluoro-9-hydroxy-4-methyl-10,13-dioxo-2,3,9,10,13,15-hexahydro-1H,12H-benzo[de]pyrano[3′,4′: 6,7]indolizino[1,2-b]quinolin-1-yl)-3-hydroxypropanamide formate], for which the EC50 under setting [1] came to 27 nM.
On to `CC[C@@]1(O)C(=O)OCc2c1cc1n(c2=O)Cc2c-1nc1cc(F)c(C)c3c1c2[C@@H](NC(=O)C(N)(Cc1ccccc1)C(F)(F)F)CC3` (single isomer, unassigned) [Compound 19], for which the EC50 under setting [2] stood at 5.7 nM.
Take `CC[C@@]1(O)C(=O)OCc2c1cc1n(c2=O)Cc2c-1nc1cc(F)c(C)c3c1c2[C@@H](NC(=O)C(C)(N)C(F)(F)F)CC3` (single isomer, unassigned) [Compound 17]: under setting [2], the EC50 is 2 nM.
Regarding `CC[C@@]1(O)C(=O)OCc2c1cc1n(c2=O)Cc2c-1nc1cc(F)c(C)c3c1c2[C@@H](NC(=O)C[C@@H](C)O)CC3` [Compound 26], under setting [3], the EC50 turned out to be 2.9 nM.
Take `CC[C@@]1(O)C(=O)OCc2c1cc1n(c2=O)Cc2c-1nc1cc(F)c(C)c3c1c2[C@@H](NC(C)C(F)F)CC3` (stereo partly drawn) [Compound 59]: under setting [1], the EC50 is 5.4 nM.
